Experimental data from the supplement of paper PMC10307832.

Assays:
Test in all cases: relative viability (nuclei count vs DMSO), 5 days (fraction); higher = more cells survive
Zebularine + Tozasertib = compound: O=c1ncccn1[C@@H]1O[C@H](CO)[C@@H](O)[C@H]1O [Zebularine] + Cc1cc(Nc2cc(N3CCN(C)CC3)nc(Sc3ccc(NC(=O)C4CC4)cc3)n2)n[nH]1 [Tozasertib] (partner 0.1 µM)
Procedure, shortened: (§1)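 Lung cancer cell lines in 1536-well plates were dosed by pin tool the day after seeding, either with one drug alone or with a fixed anchor-drug dose plus five library-drug doses (not always all listed) in √10 steps. After 5 days, cells were fixed and their nuclei stained in one step (final 0.05% Triton X-100, 1% formaldehyde, 1 ug/ml Hoechst), then counted on 4× images. Relative viability is the nuclei count in treated wells divided by that in vehicle wells. Values are medians of duplicate plates.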

BI-D1870 + Crizotinib = compound: CC(C)CCN1c2nc(Nc3cc(F)c(O)c(F)c3)ncc2N(C)C(=O)C1C [BI-D1870] + C[C@@H](Oc1cc(-c2cnn(C3CCNCC3)c2)cnc1N)c1c(Cl)ccc(F)c1Cl [Crizotinib] (partner 1 µM)
Procedure, shortened: as §1

Zebularine + Trametinib = compound: O=c1ncccn1[C@@H]1O[C@H](CO)[C@@H](O)[C@H]1O [Zebularine] + CC(=O)Nc1cccc(-n2c(=O)n(C3CC3)c(=O)c3c(Nc4ccc(I)cc4F)n(C)c(=O)c(C)c32)c1 [Trametinib] (partner 0.02 µM)
Procedure, shortened: as §1

Zebularine + Decitabine = compound: O=c1ncccn1[C@@H]1O[C@H](CO)[C@@H](O)[C@H]1O [Zebularine] + Nc1ncn([C@H]2C[C@H](O)[C@@H](CO)O2)c(=O)n1 [Decitabine] (partner 2 µM)
Procedure, shortened: as §1

Q: UMC-11 was tested. Which relative viability (Zebularine + Tozasertib; first compound 1 µM) did it give?
A: The relative viability was 0.191.

Q: And the relative viability (Zebularine + Tozasertib; first compound 3.162 µM)?
A: Its relative viability is 0.192.

Q: And the relative viability (Zebularine + Tozasertib; first compound 10 µM)?
A: The relative viability was 0.219.

Q: What about the relative viability (Zebularine + Tozasertib; first compound 31.62 µM) of the same cell line?
A: The relative viability was 0.213.

Q: What about the relative viability (Zebularine + Tozasertib; first compound 100 µM) of the same cell line?
A: Its relative viability is 0.207.

Q: And the relative viability (BI-D1870 + Crizotinib; first compound 0.04 µM)?
A: The relative viability was 0.477.

Q: What about the relative viability (BI-D1870 + Crizotinib; first compound 0.1265 µM) of the same cell line?
A: Its relative viability is 0.585.

Q: And the relative viability (BI-D1870 + Crizotinib; first compound 0.4 µM)?
A: Its relative viability is 0.533.

Q: What about the relative viability (BI-D1870 + Crizotinib; first compound 1.265 µM) of the same cell line?
A: Its relative viability is 0.694.

Q: What about the relative viability (BI-D1870 + Crizotinib; first compound 4 µM) of the same cell line?
A: The relative viability was 0.172.

Q: What about the relative viability (Zebularine + Trametinib; first compound 1 µM) of the same cell line?
A: The relative viability was 0.709.

Q: What about the relative viability (Zebularine + Trametinib; first compound 3.162 µM) of the same cell line?
A: Its relative viability is 0.754.

Q: What about the relative viability (Zebularine + Trametinib; first compound 10 µM) of the same cell line?
A: The relative viability was 0.422.

Q: And the relative viability (Zebularine + Trametinib; first compound 31.62 µM)?
A: Its relative viability is 0.644.

Q: What about the relative viability (Zebularine + Trametinib; first compound 100 µM) of the same cell line?
A: The relative viability was 0.376.

Q: What about the relative viability (Zebularine + Decitabine; first compound 1 µM) of the same cell line?
A: The relative viability was 0.557.

Q: And the relative viability (Zebularine + Decitabine; first compound 3.162 µM)?
A: The relative viability was 0.604.

Q: What about the relative viability (Zebularine + Decitabine; first compound 10 µM) of the same cell line?
A: The relative viability was 0.589.

Q: And the relative viability (Zebularine + Decitabine; first compound 31.62 µM)?
A: The relative viability was 0.586.

Q: What about the relative viability (Zebularine + Decitabine; first compound 100 µM) of the same cell line?
A: Its relative viability is 0.527.
